The assay addresses Envelope glycoprotein gp160 (Human immunodeficiency virus 1, UniProt Q6QLK5). Description: inhibitors of HIV fusion peptide binding, primary screen, biochemical, uHTS, fluorescence dequenching (AID 1986).

Active and inactive are the calls of the source. Cut-off read from the data, not from the text of the source: actives have a measured IC50 and inactives only a lower limit.

Envelope glycoprotein gp160, sequence (Q6QLK5 whole entry, the tested form may be a part): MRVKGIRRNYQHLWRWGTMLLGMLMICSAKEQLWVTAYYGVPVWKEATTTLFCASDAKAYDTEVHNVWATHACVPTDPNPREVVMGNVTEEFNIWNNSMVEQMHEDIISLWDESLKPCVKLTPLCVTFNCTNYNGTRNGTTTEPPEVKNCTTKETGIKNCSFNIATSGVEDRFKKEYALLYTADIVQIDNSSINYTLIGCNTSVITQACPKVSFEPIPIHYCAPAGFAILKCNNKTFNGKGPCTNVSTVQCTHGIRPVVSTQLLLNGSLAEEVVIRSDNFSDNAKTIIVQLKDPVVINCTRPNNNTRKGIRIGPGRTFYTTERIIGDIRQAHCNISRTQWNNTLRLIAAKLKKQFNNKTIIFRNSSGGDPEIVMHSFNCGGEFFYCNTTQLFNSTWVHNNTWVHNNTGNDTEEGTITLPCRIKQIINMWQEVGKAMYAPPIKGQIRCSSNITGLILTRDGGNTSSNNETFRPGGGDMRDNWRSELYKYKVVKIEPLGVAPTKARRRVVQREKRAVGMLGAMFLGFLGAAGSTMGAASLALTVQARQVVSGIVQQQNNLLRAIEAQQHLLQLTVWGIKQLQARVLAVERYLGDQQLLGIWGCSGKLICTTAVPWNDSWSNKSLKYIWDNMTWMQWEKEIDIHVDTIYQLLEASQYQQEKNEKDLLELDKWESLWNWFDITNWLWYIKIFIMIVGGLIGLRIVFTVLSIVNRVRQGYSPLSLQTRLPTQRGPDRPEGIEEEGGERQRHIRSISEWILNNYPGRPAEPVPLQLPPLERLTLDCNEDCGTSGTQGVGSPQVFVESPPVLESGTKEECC

In general, IC50 refers to the concentration needed to halve the response being measured. As for `O=C(O)CSc1cc(C(=O)c2cc(F)ccc2O)cn2c(=O)c3c(-c4ccccc4)csc3nc12`, the IC50 is 14.9 µM (active).
For the compound `N#Cc1c(-c2cccs2)nc(SCc2ccc(Cl)cc2)[nH]c1=O`, the IC50 is 11.1 µM (active).

(Values after ChEMBL document CHEMBL1201862, “PubChem BioAssay data set” (2004).)
